Test [1] has as its target T1, rat liver HMG-CoA reductase (Rattus norvegicus, UniProt P51639).
T1 construct: from tissue; host or cells: rat liver microsomes
T1 sequence (P51639 1-887): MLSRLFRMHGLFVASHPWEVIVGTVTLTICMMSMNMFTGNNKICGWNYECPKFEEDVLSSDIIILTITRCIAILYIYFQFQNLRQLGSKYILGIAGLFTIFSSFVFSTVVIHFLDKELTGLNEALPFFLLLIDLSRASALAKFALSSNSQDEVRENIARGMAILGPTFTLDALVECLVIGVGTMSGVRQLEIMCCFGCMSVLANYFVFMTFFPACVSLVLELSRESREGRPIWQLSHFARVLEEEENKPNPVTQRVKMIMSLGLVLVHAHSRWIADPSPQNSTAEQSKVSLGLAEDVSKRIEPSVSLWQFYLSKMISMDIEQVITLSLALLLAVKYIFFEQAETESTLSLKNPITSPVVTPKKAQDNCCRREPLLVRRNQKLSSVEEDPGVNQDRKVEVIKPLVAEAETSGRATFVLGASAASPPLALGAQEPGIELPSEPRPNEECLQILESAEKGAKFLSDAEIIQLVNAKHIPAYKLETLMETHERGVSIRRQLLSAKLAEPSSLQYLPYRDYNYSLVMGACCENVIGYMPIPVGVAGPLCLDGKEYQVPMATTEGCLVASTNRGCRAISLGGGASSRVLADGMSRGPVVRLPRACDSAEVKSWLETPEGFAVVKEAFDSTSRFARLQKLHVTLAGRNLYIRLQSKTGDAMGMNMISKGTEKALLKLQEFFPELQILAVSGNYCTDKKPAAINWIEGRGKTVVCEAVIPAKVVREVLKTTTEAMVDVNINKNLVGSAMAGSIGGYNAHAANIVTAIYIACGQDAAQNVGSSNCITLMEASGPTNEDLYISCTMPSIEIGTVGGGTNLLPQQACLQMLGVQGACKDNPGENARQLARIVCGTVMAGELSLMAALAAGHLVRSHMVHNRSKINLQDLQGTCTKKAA
In words: Test A: In Vitro Inhibition of Microsomal HMG-CoA Reductase. Format: biochemical. Conditions: rat liver microsomes; 0.33 mM d,1-[3-14C]-HMG-CoA, 3.0 mM NADPH, pH 7.2. How it is done: The intact, fully activated microsomal form of rat liver HMG-CoA reductase (subunit MW ca 100,000 daltons) was prepared as described by Parker, et al., Biochem. Biophys. Res. Commun., 125, 629-635 (1984), and used as the source of enzyme for assays. HMG-CoA reductase activity was determined essentially by the method of Shapiro, et al., Biochem. Biophys. Acta., 370, 369-377 (1974), with modifications as described by Ingebritsen and Gibson, Meth. Enzymol. 71, 486-497 (1981) with the exception that the internal standard ^3 H-mevalonolactone is added after termination of the assay. […]
To measure reductase inhibition, test compounds dissolved in water or dimethylsulfoxide and diluted in buffer A (50 mM imidazole-HCl, 250 mM NaCl, 1 mM EDTA, 1 mM EGTA, 5 mM DTT, 20 μM leupeptin, pH=7.2) were incubated with aliquots of microsomes (80-160 μg protein in buffer A) followed by addition of d,1-[3-^14 C]-HMG-CoA (0.33 mM, 2.0 dpm/picomole) and NADPH (3.0 mM). The 50 percent inhibitory concentration (IC50) for each compound in Table 1 was calculated from the linear regression line of the percent decrease (from control) in enzyme activity vs. log concentration of inhibitor, determined using at least 4 dilutions of each test compound assayed in duplicate.
For orientation: Liver microsomes are vesicles of endoplasmic reticulum, rich in cytochrome P450 enzymes.

The subject of test [2] is Isolated Hepatocyte Cholesterol Biosynthesis. In words: Test B: Isolated Hepatocyte Cholesterol Biosynthesis Assay. Format: cell-based, male Wistar rats. Particulars: rat hepatocytes, 10 min preincubation, 60 min incubation at 37°, pH 7.35, read-out: IC50, Inhibition of Isolated Hepatocyte Cholesterol Biosynthesis. How it is done: Intact parenchymal hepatocytes were isolated from male Wistar rats (180-280 g) fed cholestyramine containing or normal diet, using the collagenase perfusion method essentially as described by Seglen, in Methods in Cell Biology (D. Prescott, ed.) Vol. 13, pp. 29-83, Academic Press, New York (1976). Cell preparations were used only when viability (trypan blue exclusion) exceeded 90%. Cholesterol biosynthesis was determined as the incorporation by hepatocytes of ^3 H from [^3 H]-water into total (cellular plus medium) 3β-hydroxy sterols as per Ingebritsen, et al., J. Biol. Chem., 254, 9986-9989 (1979). Hepatocyte sterols and lipids were isolated by a modification of the methods described by Kates, in Techniques in Lipidology, (M. Kates, ed.), pp. 349, 360-363, North Holland Publ. Co., Amsterdam, 1972. To isolate sterols, cells are extracted with methanol:chloroform:water (2:1:0.8), the chloroform phase is separated and extracted with benzene to remove traces of water, then dried under nitrogen. The residue is saponified at 75° C. with 0.30N NaOH in methanol:water (9:1). The alkaline mixture is then extracted three times with petroleum ether to yield the non-saponifiable lipids which include the free as well as initially esterified cholesterol. The extract is dried under nitrogen in the presence of carrier cholesterol (0.1 mg) and 10% benzene, and the residue is dissolved in acetone:ethanol (1:1). Finally, the 3β-hydroxysterols are precipitated with an excess of digitonin, the precipitate is washed in acetone, dried under nitrogen, and dissolved in toluene:methanol (1:1). The ^3 H-labelled sterols are quantified by liquid scintillation and corrected for counting efficiency. In some tests ^14 C-cholesterol was added to initial extractions as an index of recovery, which averaged 80±3%. […]

Molecules are shown by their SMILES. Where a name gives a salt, the structure may show the parent alone.

Take `Cc1nnnn1C(/C=C/C(O)CC(O)CC(=O)O)=C(c1ccc(F)cc1)c1ccc(F)cc1` (centres unmarked) [Example 20]: the 50% inhibitory concentration (IC50) turned out to be 750 nM in test [1] and 100 nM in test [2].

As for `O=C(O)CC(O)CC(O)/C=C/C(=C(c1ccc(F)cc1)c1ccc(F)cc1)n1cnnn1` (centres unmarked) [Example 28, 9,9-Bis(4-fluorophenyl)-3,5-dihydroxy-8-(1H-tetrazol-1-yl)-6,8-nonadienoic acid, sodium salt], the figures for the IC50 in test [1] and in test [2] were 120 nM and 20 nM, respectively. Regarding `CC[C@H](C)C(=O)O[C@H]1C[C@@H](C)C=C2C=C[C@H](C)[C@H](CC[C@@H]3C[C@@H](O)CC(=O)O3)[C@H]21` [Mevinolin (Lovastatin), Mevinolin, reference compound], in test [2], the IC50 was found to be 46 ± 26 nM.

What is called IC50 is the point on the concentration scale where inhibition reaches its midpoint.

The values are drawn from patent publication US4870187A, “Antihypercholesterolemic tetrazol-1-yl compounds” (Bristol-Myers Company, priority 1988, dated 1989).
